Entries after “also recorded” stand apart in the source; their conditions may differ.
Legend:
PCL, LPLA2, PLBL2 = assay: Substrate specificity, model enzymes; assay type: biochemical; details: 0.5 mM substrate; PCL and LPLA2 20 ng/ml, PLBL2 400 µg/ml
Protocol: (§1) The esterase activity assay monitors the conversion of the non-fluorescent substrates, 4-methylumbelliferyl fatty acid esters, to a fluorescent product, MU, through the cleavage of the ester bond. […] The concentration of each buffer component was selected based on in-house assay development studies (data not shown). A 50 mM tris chloride running buffer at pH 8.0 with 0.01% gum arabic was previously used to determine activity rates in a lipase and esterase activity assay (Nalder TD, et al., Biochimie. 2016;128-129:127-132).

[1] = system: purified protein samples (mAbs 1-3); assay: Substrate specificity, purified protein samples; assay type: biochemical, CHO and E. coli; details: 0.5 mM substrate; mAbs 1-3 neat, 150-225 mg/ml
Protocol: as §1

[2] = system: residual hydrolytic HCPs in affinity chromatography purified mAb 7 sample (PS20 degradation); assay: Orlistat incubation, PS20 degradation by FFA (lauric acid) release in mAb 7 sample; assay type: biochemical, CHO (Chinese Hamster Ovary); details: mAb7 sample, PS20 0.04%, 25° C. 12 days, relative to samples without orlistat
Protocol: (§2) To investigate the effect of orlistat on PS20 degradation, affinity chromatography purified samples of mAb 2 (28 mg/mL), mAb 6 (22 mg/ml) and mAb 7 (22 mg/ml) were incubated for 5 hours at room temperature in the presence of DMSO (10% v/v) with orlistat (0.2 µM and 20 µM) or without orlistat. The samples were then spiked with PS20 (0.04% v/v) and methionine (20 mg/ml) and incubated at 25° C. for 12 days. After incubation, the samples were analyzed for PS20 hydrolytic degradation by quantifying the FFA degradant (lauric acid) as previously described in detail (Cheng Y, et al., J Pharm Sci. 2019;108(9):2880-2886).

carboxylesterase 2 = molecular target: T1, carboxylesterase 2 (Homo sapiens, UniProt O00748); details: cited from earlier work
T1 sequence (O00748 27-559): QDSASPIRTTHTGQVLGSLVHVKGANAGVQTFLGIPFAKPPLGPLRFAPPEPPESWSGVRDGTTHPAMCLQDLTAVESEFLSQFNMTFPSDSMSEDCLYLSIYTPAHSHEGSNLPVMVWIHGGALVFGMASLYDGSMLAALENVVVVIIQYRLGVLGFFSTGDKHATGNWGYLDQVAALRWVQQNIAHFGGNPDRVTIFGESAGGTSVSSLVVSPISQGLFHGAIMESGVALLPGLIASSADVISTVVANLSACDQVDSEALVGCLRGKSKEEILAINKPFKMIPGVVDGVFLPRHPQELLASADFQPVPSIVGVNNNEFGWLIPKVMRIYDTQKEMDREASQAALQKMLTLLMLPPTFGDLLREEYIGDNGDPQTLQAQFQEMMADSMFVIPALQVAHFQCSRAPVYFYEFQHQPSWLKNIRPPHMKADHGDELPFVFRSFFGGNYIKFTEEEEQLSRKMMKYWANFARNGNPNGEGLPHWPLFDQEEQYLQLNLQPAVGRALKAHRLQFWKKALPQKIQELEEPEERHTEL

[3] = system: residual hydrolytic HCPs in affinity chromatography purified mAb 2 sample (PS20 degradation); assay: Orlistat incubation, PS20 degradation by FFA (lauric acid) release in mAb 2 sample; assay type: biochemical, CHO (Chinese Hamster Ovary); details: mAb2 sample, PS20 0.04%, 25° C. 12 days, relative to samples without orlistat
Protocol: as §2

[4] = system: lysosomal phospholipase A2 (LPLA2); assay: Orlistat inhibition, esterase activity assay with MU-C8; assay type: biochemical; details: orlistat 0.5, 1 and 10 µM; LPLA2 50 ng/ml; MU-C8 substrate
Protocol: (§3) The esterase activity assay monitors the conversion of the non-fluorescent substrates, 4-methylumbelliferyl fatty acid esters, to a fluorescent product, MU, through the cleavage of the ester bond. The reaction mixture contained 80 µl of reaction buffer (150 mM tris chloride pH 8.0, 0.25% (w/v) Triton X-100 and 0.125% (w/v) gum arabic), 10 µl substrate at 1 mM final concentration, and 10 µl model enzyme solution or protein samples. The concentration of each buffer component was selected based on in-house assay development studies (data not shown). […]
(§4) Model enzymes were diluted in water to the desired concentrations. […] The reaction was set up in 96-well plates and the increase of fluorescence signal (using excitation and emission wavelengths of 355 nm and 460 nm, respectively) was monitored every 10 minutes by incubating the reaction plates for two hours at 37° C. in a plate reader. Rate of production of MU, representing the total hydrolytic activity (from enzymatic and non-enzymatic hydrolysis), was derived from the slope of the fluorescence time course from 30 minutes to 120 minutes, and is denoted by the reaction raw rate (kraw). […]
(§5) Orlistat stock solution in DMSO was freshly prepared for each inhibition reaction. […] Rates were adjusted for background fluorescence as measured by the enzyme blank (negative control) wells. […]

[5] = molecular target: T2, Pseudomonas cepacia lipase (PCL) (Burkholderia cepacia, UniProt P22088); assay: as above; assay type: biochemical; details: orlistat 0.5, 1 and 10 µM; PCL 50 ng/ml; MU-C8 substrate
T2 construct: purchased Sigma Aldrich
Protocol: as §3, §4, §5

[6] = system: residual HCPs in purified mAb 1 sample; assay: as above; assay type: biochemical, CHO (Chinese Hamster Ovary); details: orlistat 0.5, 1 and 10 µM vs DMSO control; mAb 1 25 mg/ml during incubation; MU-C8 substrate
Protocol: as §3, §4, §5

[7] = system: residual hydrolytic HCPs in affinity chromatography purified mAb 6 sample (PS20 degradation); assay: Orlistat incubation, PS20 degradation by FFA (lauric acid) release in mAb 6 sample; assay type: biochemical, CHO (Chinese Hamster Ovary); details: mAb6 sample, PS20 0.04%, 25° C. 12 days, relative to samples without orlistat
Protocol: as §2

[8] = molecular target: T3, carboxylesterase 1 (CES1) (Homo sapiens, UniProt P23141); details: cited from earlier work
T3 sequence (P23141 18-567): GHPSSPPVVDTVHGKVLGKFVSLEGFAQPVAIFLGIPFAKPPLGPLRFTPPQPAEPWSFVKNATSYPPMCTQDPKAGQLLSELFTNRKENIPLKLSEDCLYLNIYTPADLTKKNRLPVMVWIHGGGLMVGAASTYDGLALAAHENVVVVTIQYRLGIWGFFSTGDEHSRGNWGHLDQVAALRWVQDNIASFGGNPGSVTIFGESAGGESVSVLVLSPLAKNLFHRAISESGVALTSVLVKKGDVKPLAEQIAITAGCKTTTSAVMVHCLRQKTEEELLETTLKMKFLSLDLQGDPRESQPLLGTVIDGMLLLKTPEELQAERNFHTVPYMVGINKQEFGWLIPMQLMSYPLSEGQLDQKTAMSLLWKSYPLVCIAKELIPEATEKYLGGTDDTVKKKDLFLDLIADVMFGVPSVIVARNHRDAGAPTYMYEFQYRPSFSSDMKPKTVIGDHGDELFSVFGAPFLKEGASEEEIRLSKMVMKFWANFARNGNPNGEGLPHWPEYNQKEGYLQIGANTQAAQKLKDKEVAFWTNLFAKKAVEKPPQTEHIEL

T2 sequence (P22088 45-364): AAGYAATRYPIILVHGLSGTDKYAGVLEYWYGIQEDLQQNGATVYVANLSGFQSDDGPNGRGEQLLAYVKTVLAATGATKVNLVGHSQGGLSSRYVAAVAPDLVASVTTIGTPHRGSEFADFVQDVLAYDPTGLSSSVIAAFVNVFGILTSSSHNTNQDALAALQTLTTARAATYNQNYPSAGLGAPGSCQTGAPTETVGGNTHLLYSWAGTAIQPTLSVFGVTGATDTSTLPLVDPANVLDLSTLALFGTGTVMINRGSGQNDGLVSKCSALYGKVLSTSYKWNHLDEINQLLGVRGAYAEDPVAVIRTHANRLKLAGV

SMILES: CCCCCCCC(=O)Oc1ccc2c(C)cc(=O)oc2c1 [MU-C8, 4-methylumbelliferyl caprylate]
- hydrolysis of MU ester by model enzymes (PCL, LPLA2, PLBL2): hydrolyzed
- activity of purified protein samples towards MU ester substrate [1]: most sensitivity

SMILES: CCCCCCCCCC(=O)Oc1ccc2c(C)cc(=O)oc2c1 [MU-C10, 4-methylumbelliferyl decanoate]
- hydrolysis of MU ester by model enzymes (PCL, LPLA2, PLBL2): hydrolyzed

SMILES: CCCCCCCC/C=C\CCCCCCCC(=O)Oc1ccc2c(C)cc(=O)oc2c1 [MU-C18:1, 4-methylumbelliferyl oleate]
- activity of purified protein samples towards MU ester substrate [1]: did not show activity

SMILES: CCCCCCCCCCC[C@@H](C[C@@H]1OC(=O)[C@H]1CCCCCC)OC(=O)[C@H](CC(C)C)NC=O [orlistat, (S)-2-formylamino-4-methyl-pentanoic acid (S)-1-[[(2S,3S)-3-hexyl-4-oxo-2-oxetanyl]methyl]-dodecyl ester]
- Decrease in FFA Release Rate (%) ([2]; orlistat 0.2 µM): 39%
- Decrease in FFA Release Rate (%) ([2]; orlistat 20 µM): 74%
- inhibition of carboxylesterase 2 (carboxylesterase 2): significantly inhibited
- Decrease in FFA Release Rate (%) ([3]; orlistat 0.2 µM): 31%
- Decrease in FFA Release Rate (%) ([3]; orlistat 20 µM): 63%
- inhibition of esterase activity [4]: complete inhibition
- inhibition of esterase activity [5]: complete inhibition
- reduction in esterase activity rate [6]: dose-dependent reduction; also recorded: did not completely inhibit
- Decrease in FFA Release Rate (%) ([7]; orlistat 0.2 µM): 67%
- Decrease in FFA Release Rate (%) ([7]; orlistat 20 µM): 91%
- inhibition of carboxylesterase 1 [8]: lack of orlistat potency

From US20230348953A1, “HIGH THROUGHPUT, FLUORESCENCE-BASED ESTERASE ACTIVITY ASSAY FOR ASSESSING POLYSORBATE DEGRADATION RISK DURING BIOPHARMACEUTICAL DEVELOPMENT” (GENENTECH, INC., priority 2020, published 2023)
